Data from ChEMBL document CHEMBL5528015, “Structure-based design of SARS-CoV-2 papain-like protease inhibitors” (Eur J Med Chem, 2024).
Activity calls are given as the source filed them. The rule behind the calls is not given here.

Assays:
[1] = molecular target: Replicase polyprotein 1ab (Severe acute respiratory syndrome coronavirus 2, UniProt P0DTD1); test: biochemical
[2] = Metabolic stability in mouse liver microsomes assessed as intrinsic clearance at 1 uM measured upto 60 mins in presence of NADPH regenerating system by LC-MS/MS analysis; format: ADME, Microsome; settings: read-out: CLH
[3] = mouse, microsomes, 1 h, 1 µM
[4] = molecular target: Replicase polyprotein 1ab (Severe acute respiratory syndrome coronavirus 2) (UniProt P0DTD1); settings: BetaCoV/Wuhan/WIV04/2019, dose 40.0 µM, time 30.0 min
[5] = Cytotoxicity against African green monkey Vero E6 cells incubated for 48 hrs by neutral red uptake assay; format: toxicity, cell-based, Vero C1008; settings: chlorocebus sabaeus
in vitro = settings: mouse, liver microsomes

| SMILES | IC50 [1] | CC50 at 48 h [5] | further results |
| --- | --- | --- | --- |
| Cc1ccc(OCCN)cc1C(=O)N[C@H](C)c1cccc(-c2cnn(C)c2)c1 | 0.96 µM |  |  |
| Cc1ccc(OCCN)cc1C(=O)N[C@H](C)c1cccc(-c2ccc(CNC3CC3)s2)c1 | 0.94 µM |  |  |
| COCCn1cc(-c2cccc([C@@H](C)NC(=O)c3cc(OCCN)ccc3C)c2)cn1 | 1.51 µM |  |  |
| Cc1ccc(OCCN)cc1C(=O)N[C@H](C)c1cccc(-c2c[nH]nc2C)c1 | 1.96 µM |  |  |
| Cc1ccc(OCCN)cc1C(=O)N[C@H](C)c1cccc(-c2ccoc2)c1 |  | 103 µM | microsomal CLint at 1 µM [2]: 25.7 µL/min/mg; t1/2 [3]: 0.897 h; Activity [4]: Active |
| Cc1ccc(OCCN)cc1C(=O)N[C@H](C)c1cccc(-c2ccn[nH]2)c1 | 1.16 µM |  |  |
| Cc1ccc(OCCN)cc1C(=O)N[C@H](C)c1cccc(-c2cnn(Cc3ccccc3)c2)c1 | 1.03 µM |  |  |
| Cc1ccc(OCCN)cc1C(=O)N[C@H](C)c1cccc(-c2ccc(O)cc2)c1 |  | 45.2 µM | microsomal CLint at 1 µM [2]: 24 µL/min/mg; t1/2 [3]: 0.962 h |
| C[C@H](c1cccc(-c2cccs2)c1)N(C)Cc1c[nH]c2cc(F)ccc12 | 2.34 µM |  |  |
| C[C@H](c1cccc(-c2cccs2)c1)N(C)Cc1c[nH]c2ccc(F)cc12 | 2.66 µM |  |  |
| Cc1ccc(OCCN)cc1C(=O)N[C@H](C)c1cccc(-c2ccccc2O)c1 | 2.25 µM |  |  |
| Cc1ccc(OCCN)cc1C(=O)N[C@H](C)c1cccc(-c2ccnn2C)c1 | 2.78 µM |  |  |
| Cc1ccc(OCCN)cc1C(=O)N[C@H](C)c1cccc(-c2cccs2)c1 |  | 15.2 µM | microsomal CLint at 1 µM [2]: < 9.6 µL/min/mg; t1/2 [3]: > 2.42 h |
| Cc1ccc(OCCN)cc1C(=O)N[C@H](C)c1cccc2ccccc12 |  |  | microsomal CLint at 1 µM [2]: < 9.6 µL/min/mg; t1/2 [3]: > 2.42 h |
| C[C@H](c1cccc(-c2cccs2)c1)N(C)Cc1ccc(O)cc1O | 5.03 µM |  |  |
| C[C@H](c1cccc2ccccc12)N(C)Cc1c[nH]c2cc(F)ccc12 |  | 31.8 µM |  |
| Cc1ccc(OCCN)cc1C(=O)N[C@H](C)c1cccc(-c2cnc(N(C)C)nc2)c1 | > 20 µM |  |  |
| Cc1ccc(OCCN)cc1C(=O)N[C@H](C)c1cccc(-c2ccc(C#N)s2)c1 |  | 15 µM |  |
| COc1cc([N+](=O)[O-])ccc1CN(C)[C@H](C)c1cccc2ccccc12 |  | > 100 µM | Activity [4]: Active |
| Cc1ccc(OCCN)cc1C(=O)N[C@H](C)c1cccc(-c2ccsc2)c1 |  | > 30 µM | microsomal CLint at 1 µM [2]: 11.8 µL/min/mg; t1/2 [3]: 1.958 h |
| C[C@H](c1cccc2ccccc12)N(C)Cc1c[nH]c2ccc(F)cc12 |  | 32.5 µM |  |

| SMILES | IC50 [1] | CC50 at 48 h [5] | further results |
| --- | --- | --- | --- |
| Cc1ccc(OCCN)cc1C(=O)N[C@H](C)c1cccc(-c2c(C)noc2C)c1 | 1.48 µM |  |  |
| Cc1ccc(OCCN)cc1C(=O)N[C@H](C)c1cccc(-c2cnn(C(F)F)c2)c1 | 1.14 µM |  |  |
| Cc1ccc(OCCN)cc1C(=O)N[C@H](C)c1cccc(-c2ccc(F)cc2)c1 | 1.22 µM |  |  |
| Cc1ccc(OCCN)cc1C(=O)N[C@H](C)c1cccc(-c2cn[nH]c2)c1 | 1.49 µM |  |  |
| Cc1ccc(OCCN)cc1C(=O)N[C@H](C)c1cccc(-c2ccc(C#N)cc2)c1 | 0.89 µM |  |  |
| C[C@H](c1cccc2ccccc12)N(C)Cc1ccc(O)cc1O |  | 31.5 µM | Activity [4]: Active |
| Cc1ccc(OCCN)cc1C(=O)N[C@H](C)c1cccc(-c2ccc3c(c2)OCCO3)c1 | 0.97 µM |  |  |
| Cc1ccc(OCCN)cc1C(=O)N[C@H](C)c1cccc(-c2ccn(C)c2C)c1 | 3.35 µM |  |  |
| Cc1ccc(O)cc1CN(C)[C@H](C)c1cccc2ccccc12 |  | 14.4 µM | microsomal CLint at 1 µM [2]: 2490 µL/min/mg |
| C[C@H](c1cccc(-c2ccc(CN3CCCC3)s2)c1)N(C)Cc1ccc2[nH]ncc2c1 | 7.09 µM |  |  |
| C[C@H](c1cccc2ccccc12)N(C)Cc1ccc2[nH]ncc2c1 |  | 35.5 µM |  |
| C[C@H](c1cccc2ccccc12)N(C)Cc1ccc2cn[nH]c2c1 |  | 28.3 µM |  |
| C[C@H](c1cccc(-c2cccs2)c1)N(C)Cc1ccc2cn[nH]c2c1 | 2.36 µM |  |  |
| Cc1ccc(OCCN)cc1C(=O)N[C@H](C)c1cccc(-c2ccc(F)cc2F)c1 | 1.54 µM |  |  |
| COc1cc(O)ccc1CN(C)[C@@H](C)c1cccc(-c2ccc(CN3CCCC3)s2)c1 | 3 µM |  |  |
| Cc1ccc(NC2CNC2)cc1CN(C)[C@H](C)c1cccc2ccccc12 |  | 13.7 µM | microsomal CLint at 1 µM [2]: 13.8 µL/min/mg; t1/2 [3]: 1.673 h |
| C[C@H](c1cccc2ccccc12)N(C)Cc1c[nH]c2ccccc12 |  | 24.7 µM |  |
| C[C@H](c1cccc(-c2ccc(CN3CCCC3)s2)c1)N(C)Cc1cccc2[nH]ccc12 | 3.39 µM |  |  |
| Cc1ccc(OCCN)cc1C(=O)N[C@H](C)c1cccc(-c2ccc3c(c2)CCO3)c1 | 1.08 µM |  |  |
| C[C@H](c1cccc2ccccc12)N(C)Cc1ccc(O)cc1 |  | 23.7 µM | microsomal CLint at 1 µM [2]: 779 µL/min/mg; half-life at 1 h, 1 µM (in vitro): 1.8 min |
